Experimental data published in paper PMC2667896 (Archives of Drug Information, 2009).
Read-outs that look alike come from different tables or passages of the source.

Key:
[1] = Steady-state plasma pharmacokinetics in healthy volunteers; type: in vivo, human
CYP3A4 = details: cited from earlier work
[2] = cited from earlier work
[3] = Day 11, Arm 1, participant 2, saquinavir/ritonavir 1,000/100 mg orally twice daily
[4] = Day 11, Arm 1, participant 4, saquinavir/ritonavir 1,000/100 mg orally twice daily
[5] = Day 12, Arm 1, participant 2, saquinavir/ritonavir 1,000/100 mg orally twice daily
[6] = Day 12, Arm 1, participant 4, saquinavir/ritonavir 1,000/100 mg orally twice daily
[7] = Day 13, Arm 1, participant 2, saquinavir/ritonavir 1,000/100 mg orally twice daily
[8] = Day 13, Arm 1, participant 4, saquinavir/ritonavir 1,000/100 mg orally twice daily

Individual trough plasma concentration [1, 3] [ng/mL] | Individual trough plasma concentration [1, 4] [ng/mL] | Individual trough plasma concentration [1, 5] [ng/mL] | Individual trough plasma concentration [1, 6] [ng/mL] | Individual trough plasma concentration [1, 7] [ng/mL] | Individual trough plasma concentration [1, 8] | Tmax ([1]; human, plasma, po) [h] | half-life ([1]; human, plasma, po) [h] | Individual trough plasma concentration ([1]; Day 11, Arm 2, participant 1, efavirenz 600 mg orally once daily) | Individual trough plasma concentration ([1]; Day 12, Arm 2, participant 1, efavirenz 600 mg orally once daily) | Individual trough plasma concentration ([1]; Day 13, Arm 2, participant 1, efavirenz 600 mg orally once daily) | AUC ([1]; human, plasma, po, 600 mg) [ng·h/mL] | Cmax ([1]; human, plasma, po, 600 mg) [ng/mL] | Tmax ([1]; human, plasma, po, 600 mg) [h] | half-life ([1]; human, plasma, po, 600 mg) [h] | Tmax ([1]; steady state (day 14), Arm 1, participant 2, saquinavir/ritonavir 1,000/100 mg orally twice daily) [h] | SMILES | Effect on CYP3A4 (CYP3A4; saquinavir) | Effect on CYP3A4 (CYP3A4; efavirenz) | half-life [2] [h]
337 | 602 | 640 | 700 | 867 | 1,220 ng/mL | 2 | 5.98 | – | – | – | – | – | – | – | – | CC(C)(C)NC(=O)[C@@H]1C[C@@H]2CCCC[C@@H]2CN1C[C@@H](O)[C@H](Cc1ccccc1)NC(=O)[C@H](CC(N)=O)NC(=O)c1ccc2ccccc2n1 [Saquinavir] | weak CYP3A4 inhibitor | – | –
– | – | – | – | – | – | – | – | 1,080 ng/mL | 1,050 ng/mL | 1,060 ng/mL | 42500 | 4780 | 2 | 26.5 | – | O=C1Nc2ccc(Cl)cc2[C@@](C#CC2CC2)(C(F)(F)F)O1 [Efavirenz] | – | potent inducer | 40 to 55
57.8 | 137 | 83.8 | 163 | 86.2 | 251 ng/mL | – | 3.53 | – | – | – | – | – | – | – | 1.00 | CC(C)c1nc(CN(C)C(=O)N[C@H](C(=O)N[C@@H](Cc2ccccc2)C[C@H](O)[C@H](Cc2ccccc2)NC(=O)OCc2cncs2)C(C)C)cs1 [Ritonavir] | – | – | –
